In patent US10709709B2, “Substituted carbonucleoside derivatives useful as anticancer agents” (Pfizer Inc., priority 2016, dated 2020) one finds IC50 data, which are given here for 22 compounds.

For test [1], the system named is A549 lung adenocarcinoma cells. The test can be described thus: A549 proliferation assay (Cell Titer Glo). It is filed as cell-based. To be noted: 7 days with compound, cell viability by Cell Titer Glo (ATP). The essentials:
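A549 cells plated overnight, then treated with nine-point 3.3-fold dilutions (final top 10 μM, 0.2% DMSO) for 7 days at 37 °C, with media and compound refreshed on day 4. Viability measured as ATP by Cell Titer Glo luminescence; IC50 from 4-parameter fit normalized to DMSO control.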
(Cellular ATP, detected with luciferase, serves as a proxy for viable cell number.)

In test [2] the target is PRMT5/MEP50 protein complex (Homo sapiens (Human), UniProt O14744). The test can be described thus: PRMT5 biochemical assay (3H-SAM methylation of H4(1-21) peptide, filter plate scintillation). To be noted: 10 nM PRMT5/MEP50 complex, 200 nM H4(1-21) peptide, 1 uM SAM, 25 minute incubation at room temperature. The method, boiled down:
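Human PRMT5/MEP50 complex (10 nM) methylating H4(1-21) peptide (200 nM) with 3H/unlabelled SAM (1 uM final) in pH 8.5 Tris buffer, 25 min at room temperature. Stopped with TCA, 3H-peptide captured on filter plates and scintillation-counted. IC50 from 4-parameter fit.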

PRMT5/MEP50 protein complex, sequence (O14744 other isoform, or with tags, fused parts or gaps): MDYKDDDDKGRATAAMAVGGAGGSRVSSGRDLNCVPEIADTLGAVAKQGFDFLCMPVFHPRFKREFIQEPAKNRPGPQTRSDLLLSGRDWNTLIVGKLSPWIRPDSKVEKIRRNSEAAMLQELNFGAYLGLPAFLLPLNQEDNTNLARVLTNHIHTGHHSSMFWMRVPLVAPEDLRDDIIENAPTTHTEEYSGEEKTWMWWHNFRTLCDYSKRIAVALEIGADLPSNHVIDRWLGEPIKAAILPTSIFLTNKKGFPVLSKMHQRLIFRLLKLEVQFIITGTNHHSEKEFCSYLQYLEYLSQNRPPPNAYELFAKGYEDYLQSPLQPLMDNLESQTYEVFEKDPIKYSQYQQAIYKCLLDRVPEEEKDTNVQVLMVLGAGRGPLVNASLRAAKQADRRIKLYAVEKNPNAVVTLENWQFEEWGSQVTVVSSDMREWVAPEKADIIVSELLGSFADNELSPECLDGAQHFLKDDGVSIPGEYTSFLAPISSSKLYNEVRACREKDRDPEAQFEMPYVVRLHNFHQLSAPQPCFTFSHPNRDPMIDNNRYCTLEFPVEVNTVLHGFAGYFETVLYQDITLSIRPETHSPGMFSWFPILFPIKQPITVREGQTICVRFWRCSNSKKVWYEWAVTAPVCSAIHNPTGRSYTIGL
PRMT5/MEP50 protein complex, sequence (Q9BQA1 whole entry partner): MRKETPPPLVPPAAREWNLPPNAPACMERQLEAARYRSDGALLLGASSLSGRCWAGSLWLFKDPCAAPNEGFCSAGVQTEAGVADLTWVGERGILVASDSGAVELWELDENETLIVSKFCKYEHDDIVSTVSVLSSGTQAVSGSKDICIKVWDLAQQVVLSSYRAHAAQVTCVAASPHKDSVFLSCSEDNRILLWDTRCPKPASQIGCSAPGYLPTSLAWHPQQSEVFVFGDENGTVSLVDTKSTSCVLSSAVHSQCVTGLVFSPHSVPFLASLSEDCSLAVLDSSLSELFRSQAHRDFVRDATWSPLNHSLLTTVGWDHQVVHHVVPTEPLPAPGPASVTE

In the case of `Cc1ncc2c(F)cn([C@@H]3C[C@H](Oc4cc(C#N)cc5c4CNCC5)[C@@H](O)[C@H]3O)c2n1` [Example 173, 8-(((1S,2S,3S,4R)-4-(5-fluoro-2-methyl-7H-pyrrolo[2,3-d]pyrimidin-7-yl)-2,3-dihydroxycyclopentyl)oxy)-1,2,3,4-tetrahydroisoquinoline-6-carbonitrile], the IC50 in test [1] (Homo sapiens, A549, 168 h) came out at 3570 nM; in test [2] it was 3 nM.
As for `Cc1ncc2c(F)cn([C@@H]3C[C@H](Oc4cc(Cl)cc5c4CNCC5)[C@@H](O)[C@H]3O)c2n1` [Example 175, (1S,2S,3S,5R)-3-((6-chloro-1,2,3,4-tetrahydroisoquinolin-8-yl)oxy)-5-(5-fluoro-2-methyl-7H-pyrrolo[2,3-d]pyrimidin-7-yl)cyclopentane-1,2-diol], the IC50 stood at 3230 nM in test [1] (Homo sapiens, A549, 168 h) and 5 nM in test [2].
For `Cc1ncnc2c1c(F)cn2[C@@H]1C[C@H](Oc2cc(Cl)cc3c2CNCC3)[C@@H](O)[C@H]1O` [Example 176, (1S,2S,3S,5R)-3-((6-chloro-1,2,3,4-tetrahydroisoquinolin-8-yl)oxy)-5-(5-fluoro-4-methyl-7H-pyrrolo[2,3-d]pyrimidin-7-yl)cyclopentane-1,2-diol], the IC50 in test [1] (Homo sapiens, A549, 168 h) was 1560 nM; in test [2] it was 2 nM.
For the compound `Cc1ncnc2c1c(F)cn2[C@@H]1C[C@H](Oc2cc(F)c(F)c3c2CNCC3)[C@@H](O)[C@H]1O` [Example 177, (1S,2S,3S,5R)-3-((5,6-difluoro-1,2,3,4-tetrahydroisoquinolin-8-yl)oxy)-5-(5-fluoro-4-methyl-7H-pyrrolo[2,3-d]pyrimidin-7-yl)cyclopentane-1,2-diol], the concentration for half-maximal inhibition (IC50) in test [1] (Homo sapiens, A549, 168 h) amounted to 2370 nM; in test [2], 4 nM.
As to `Cc1ncc2c(F)cn([C@@H]3C[C@H](Oc4cc(F)c(F)c5c4CNCC5)[C@@H](O)[C@H]3O)c2n1` [Example 178, (1S,2S,3S,5R)-3-((5,6-difluoro-1,2,3,4-tetrahydroisoquinolin-8-yl)oxy)-5-(5-fluoro-2-methyl-7H-pyrrolo[2,3-d]pyrimidin-7-yl)cyclopentane-1,2-diol], the IC50 in test [1] (Homo sapiens, A549, 168 h) amounted to 4060 nM; in test [2], 2 nM.
As to `Nc1ncnc2c1ccn2[C@@H]1C[C@H](Oc2ccc(F)c3c2CNCC3)[C@@H](O)[C@H]1O` [Example 180, (1S,2S,3R,5S)-3-(4-amino-7H-pyrrolo[2,3-d]pyrimidin-7-yl)-5-((5-fluoro-1,2,3,4-tetrahydroisoquinolin-8-yl)oxy)cyclopentane-1,2-diol], the IC50 in test [1] (Homo sapiens, A549, 168 h) is 159 nM; in test [2] it was 3 nM.
The corresponding values for `Cc1cc2c(c(O[C@H]3C[C@@H](n4ccc5c(C)ncnc54)[C@H](O)[C@@H]3O)n1)CNCC2` [Example 181, (1S,2S,3S,5R)-3-((3-methyl-5,6,7,8-tetrahydro-2,7-naphthyridin-1-yl)oxy)-5-(4-methyl-7H-pyrrolo[2,3-d]pyrimidin-7-yl)cyclopentane-1,2-diol] are 1140 nM and 1 nM.
Turning to `COc1nc(O[C@H]2C[C@@H](n3ccc4c(C)ncnc43)[C@H](O)[C@@H]2O)c2c(c1F)CCNC2` [Example 191, (1S,2S,3S,5R)-3-((4-fluoro-3-methoxy-5,6,7,8-tetrahydro-2,7-naphthyridin-1-yl)oxy)-5-(4-methyl-7H-pyrrolo[2,3-d]pyrimidin-7-yl)cyclopentane-1,2-diol], the half-maximal inhibitory concentration (IC50) in test [1] (Homo sapiens, A549, 168 h) amounted to 7020 nM; in test [2], 1 nM.
In the case of `Cc1ncnc2c1ccn2[C@@H]1C[C@H](Oc2nc(C(F)F)cc3c2CNCC3)[C@@H](O)[C@H]1O` [Example 194, (1S,2S,3S,5R)-3-((3-(difluoromethyl)-5,6,7,8-tetrahydro-2,7-naphthyridin-1-yl)oxy)-5-(4-methyl-7H-pyrrolo[2,3-d]pyrimidin-7-yl)cyclopentane-1,2-diol], the half-maximal inhibitory concentration (IC50) in test [1] (Homo sapiens, A549, 168 h) was 111 nM; in test [2] it was 1 nM.
On the same counts, the results for `Nc1ncnc2c1c(F)cn2[C@@H]1C[C@H](Oc2cc(C(F)F)cc3c2CNCC3)[C@@H](O)[C@H]1O` [Example 195, (1S,2S,3R,5S)-3-(4-amino-5-fluoro-7H-pyrrolo[2,3-d]pyrimidin-7-yl)-5-((6-(difluoromethyl)-1,2,3,4-tetrahydroisoquinolin-8-yl)oxy)cyclopentane-1,2-diol] are 22 nM and 1 nM.
Regarding `Nc1ncnc2c1c(F)cn2[C@@H]1C[C@H](Oc2cc(C(F)F)c(F)c3c2CNCC3)[C@@H](O)[C@H]1O` [Example 196, (1S,2S,3R,5S)-3-(4-amino-5-fluoro-7H-pyrrolo[2,3-d]pyrimidin-7-yl)-5-((6-(difluoromethyl)-5-fluoro-1,2,3,4-tetrahydroisoquinolin-8-yl)oxy)cyclopentane-1,2-diol], the IC50 came to 3 nM in test [1] (Homo sapiens, A549, 168 h) and 1 nM in test [2].
As for `Cc1ncnc2c1ccn2[C@@H]1C[C@H](Oc2cc(-c3cnoc3)cc3c2CNCC3)[C@@H](O)[C@H]1O` [Example 197, (1S,2S,3S,5R)-3-((6-(isoxazol-4-yl)-1,2,3,4-tetrahydroisoquinolin-8-yl)oxy)-5-(4-methyl-7H-pyrrolo[2,3-d]pyrimidin-7-yl)cyclopentane-1,2-diol], the IC50 in test [1] (Homo sapiens, A549, 168 h) worked out at 3460 nM; in test [2] it was 1 nM.
On the same counts, the results for `COc1cc(O[C@H]2C[C@@H](n3ccc4c(C)ncnc43)[C@H](O)[C@@H]2O)c2c(c1F)CCNC2` [Example 198, (1S,2S,3S,5R)-3-((5-fluoro-6-methoxy-1,2,3,4-tetrahydroisoquinolin-8-yl)oxy)-5-(4-methyl-7H-pyrrolo[2,3-d]pyrimidin-7-yl)cyclopentane-1,2-diol] are 3820 nM and 1 nM.
Consider `Cc1ncnc2c1ccn2[C@@H]1C[C@H](Oc2cc(C#N)cc3c2CNCCO3)[C@@H](O)[C@H]1O` [Example 202, 6-(((1S,2S,3S,4R)-2,3-dihydroxy-4-(4-methyl-7H-pyrrolo[2,3-d]pyrimidin-7-yl)cyclopentyl)oxy)-2,3,4,5-tetrahydrobenzo[f][1,4]oxazepine-8-carbonitrile], for which the IC50 in test [1] (Homo sapiens, A549, 168 h) came out at 1760 nM; in test [2], 1 nM.
Turning to `Cc1ncnc2c1ccn2[C@@H]1C[C@H](Oc2cc(F)cc3c2CNCCO3)[C@@H](O)[C@H]1O` [Example 203, (1S,2S,3S,5R)-3-((8-fluoro-2,3,4,5-tetrahydrobenzo[f][1,4]oxazepin-6-yl)oxy)-5-(4-methyl-7H-pyrrolo[2,3-d]pyrimidin-7-yl)cyclopentane-1,2-diol], the IC50 came to 677 nM in test [1] (Homo sapiens, A549, 168 h) and 1 nM in test [2].
The corresponding values for `Cc1ncnc2c1ccn2[C@@H]1C[C@H](Oc2cc(Cl)cc3c2CNCCO3)[C@@H](O)[C@H]1O` [Example 204, (1S,2S,3S,5R)-3-((8-chloro-2,3,4,5-tetrahydrobenzo[f][1,4]oxazepin-6-yl)oxy)-5-(4-methyl-7H-pyrrolo[2,3-d]pyrimidin-7-yl)cyclopentane-1,2-diol] are 720 nM and 2 nM.
Turning to `Cc1ncnc2c1ccn2[C@@H]1C[C@H](Oc2cccc3c2CN[C@@H](C)CO3)[C@@H](O)[C@H]1O` [Example 207, (1S,2S,3S,5R)-3-(((S)-3-methyl-2,3,4,5-tetrahydrobenzo[f][1,4]oxazepin-6-yl)oxy)-5-(4-methyl-7H-pyrrolo[2,3-d]pyrimidin-7-yl)cyclopentane-1,2-diol], the IC50 in test [1] (Homo sapiens, A549, 168 h) stood at 1480 nM; in test [2] it was 24 nM.
For the compound `Cc1ncnc2c1ccn2[C@@H]1C[C@H](Oc2cccc3c2CNC[C@H](C)O3)[C@@H](O)[C@H]1O` [Example 210, (1S,2S,3S,5R)-3-(((S)-2-methyl-2,3,4,5-tetrahydrobenzo[f][1,4]oxazepin-6-yl)oxy)-5-(4-methyl-7H-pyrrolo[2,3-d]pyrimidin-7-yl)cyclopentane-1,2-diol], the IC50 worked out at 1550 nM in test [1] (Homo sapiens, A549, 168 h) and 1 nM in test [2].
As to `Cc1ncnc2c1ccn2[C@@H]1C[C@H](Oc2cc(C(F)F)c(F)c3c2CNCC3C)[C@@H](O)[C@H]1O` (stereo partly drawn) [Example 211, (1S,2S,3S,5R)-3-((6-(difluoromethyl)-5-fluoro-4-methyl-1,2,3,4-tetrahydroisoquinolin-8-yl)oxy)-5-(4-methyl-7H-pyrrolo[2,3-d]pyrimidin-7-yl)cyclopentane-1,2-diol], the IC50 in test [1] turned out to be 14 nM; in test [2], 1 nM.
On the same counts, the results for `Cc1ncnc2c1ccn2[C@@H]1C[C@H](Oc2cc(C(F)F)c(F)c3c2CNCC3C)[C@@H](O)[C@H]1O` (stereo partly drawn) [Example 212, (1S,2S,3S,5R)-3-((6-(difluoromethyl)-5-fluoro-4-methyl-1,2,3,4-tetrahydroisoquinolin-8-yl)oxy)-5-(4-methyl-7H-pyrrolo[2,3-d]pyrimidin-7-yl)cyclopentane-1,2-diol] are 2 nM and 1 nM.
Consider `CC1CNCc2c(O[C@H]3C[C@@H](n4cc(F)c5c(N)ncnc54)[C@H](O)[C@@H]3O)cc(C(F)F)c(F)c21` (stereo partly drawn) [Example 215, (1S,2S,3R,5S)-3-(4-amino-5-fluoro-7H-pyrrolo[2,3-d]pyrimidin-7-yl)-5-((6-(difluoromethyl)-5-fluoro-4-methyl-1,2,3,4-tetrahydroisoquinolin-8-yl)oxy)cyclopentane-1,2-diol], for which the half-inhibitory concentration (IC50) in test [1] and in test [2] was 1 nM throughout.
On to `CC1CNCc2c(O[C@H]3C[C@@H](n4cc(F)c5c(N)ncnc54)[C@H](O)[C@@H]3O)cc(C(F)F)c(F)c21` (stereo partly drawn) [Example 216, (1S,2S,3R,5S)-3-(4-amino-5-fluoro-7H-pyrrolo[2,3-d]pyrimidin-7-yl)-5-((6-(difluoromethyl)-5-fluoro-4-methyl-1,2,3,4-tetrahydroisoquinolin-8-yl)oxy)cyclopentane-1,2-diol], for which the IC50 in test [1] came out at 6 nM; in test [2], 1 nM.

What is called IC50 is the concentration that gives 50% inhibition.
